Assay results taken from ChEMBL document CHEMBL5727723, “(S)-5-ethynyl-anabasine, derivatives thereof, and related compositions and methods of making and using” (2020).

Assay: functional assay: Nematode eggs are isolated from fresh feces by centrifugation and flotation. The eggs are washed and inspected to confirm embryonation has not started. Each sample is tested at six concentrations of a test compound (e.g., 0.02, 0.05, 0.1, 0.25, 0.5 and 1.0 μg/ml) and a negative control (no compound). After incubation for 48 h, the assay is ended, and all eggs and larvae present in each well are counted. The Hill equation with a variable slope is used to fit the dose-response relations using GraphPad Prism. The EC50-values and 95% confidence intervals are calculated.

Question: With `CN1CCCCC1c1cccnc1` (centres undefined) as the molecule, how does the EC50 read?
Answer: < 100 µM

Question: With `CN1CCC[C@H]1c1ccc[n+](C)c1` as the molecule, how does the EC50 read?
Answer: < 100 µM

Question: Which EC50 does the source give for `CN1C(=O)CC[C@H]1c1cccnc1` [COTININE] here?
Answer: < 100 µM

Question: Which EC50 does the source give for `CN1CCCC1c1ccc(N)nc1` (centres undefined) here?
Answer: 12.2 µM
